Test results published in article PMC10648852, “Molecular drivers of resistance to sulbactam-durlobactam in contemporary clinical isolates of Acinetobacter baumannii” (Antimicrobial Agents and Chemotherapy, 2023).

How the values were obtained:
Experiment in all cases: microbe, parasite or virus in culture
[1] = system: ABC clinical isolates with SUL-DUR MIC > 4 µg/mL; assay type: cell-based, Acinetobacter baumannii-calcoaceticus complex
Description: (§1) The following report describes the genomic analysis of these isolates for likely resistance mechanisms. Biochemical analysis of purified PBP3 and phenotypic analyses of both clinical and isogenic strains were also conducted to determine the relative impact of key resistance determinants to SUL-DUR antibacterial activity.
(§2) Antimicrobial susceptibility testing was performed using broth microdilution following standardized methods established by the Clinical Laboratory Standards Institute (CLSI) ([35], [36]). […] MIC values were interpreted using CLSI breakpoints for all antimicrobial agents except those for which CLSI breakpoints are not available ([35]). SUL-DUR was tested as twofold dilutions of sulbactam in combination with a fixed concentration of 4 µg/mL durlobactam ([35]).

[2] = system: A. baumannii clinical isolates; assay type: cell-based
Description: as §1, §2

[3] = system: A. nosocomialis clinical isolate; assay type: cell-based; settings: isolate ARC7023 (IHMA 2118812), France, BSI, 2019
Description: as §1, §2

[4] = system: A. pittii clinical isolates; assay type: cell-based
Description: as §1, §2

For `NCC[C@H](O)C(=O)N[C@@H]1C[C@H](N)[C@@H](O[C@H]2O[C@H](CN)[C@@H](O)[C@H](O)[C@H]2O)[C@H](O)[C@H]1O[C@H]1O[C@H](CO)[C@@H](O)[C@H](N)[C@H]1O` [AMK], the MIC50 [1] was over 64 µg/mL, the MIC90 [1] was over 64 µg/mL and the “MIC Max” value [1] was over 64 µg/mL. For the same compound, the “MIC Min” value [1] was 2 µg/mL, the “%NS (% non-susceptibility)” value ([1]; 64 non-clonal ABC isolates, 2023 CLSI breakpoints plus FDA breakpoint of 4 µg/mL for SUL-DUR) was 75% and the MIC ([2]; isolate ARC6644 (IHMA 1420327), Mexico, UTI, 2016) was over 64 µg/mL. It also gave an MIC ([2]; isolate ARC6645 (IHMA 1435703), France, UTI, 2016) of 2 µg/mL, an MIC ([2]; isolate ARC6646 (IHMA 1484127), United States, RTI, 2016) of over 64 µg/mL and an MIC ([2]; isolate ARC6647 (IHMA 1386786), Argentina, RTI, 2016) of over 64 µg/mL. The MIC ([2]; isolate ARC6648 (IHMA 1407634), Spain, RTI, 2016) was 4 µg/mL, the MIC ([2]; isolate ARC6650 (IHMA 1457337), Argentina, RTI, 2016) was 16 µg/mL and the MIC ([2]; isolate ARC6652 (IHMA 1465642), Belgium, RTI, 2016) was 4 µg/mL. It also gave an MIC ([2]; isolate ARC6653 (IHMA 1308777), Vietnam, RTI, 2016) of over 64 µg/mL, an MIC ([2]; isolate ARC6799 (IHMA 1562935), Spain, UTI, 2017) of 64 µg/mL and an MIC ([2]; isolate ARC6800 (IHMA 1557526), Turkey, RTI, 2017) of over 64 µg/mL. For the same compound, the MIC ([2]; isolate ARC6801 (IHMA 1662094), Thailand, RTI, 2017) was 32 µg/mL, the MIC ([2]; isolate ARC6802 (IHMA 1557073), Spain, UTI, 2017) was over 64 µg/mL and the MIC ([2]; isolate ARC6803 (IHMA 1589408), Belgium, UTI, 2017) was 4 µg/mL. The MIC ([2]; isolate ARC6805 (IHMA 1558650), United States, RTI, 2017) was over 64 µg/mL, the MIC ([2]; isolate ARC6808 (IHMA 1557168), Spain, RTI, 2017) was 2 µg/mL and the MIC ([2]; isolate ARC6809 (IHMA 1699528), Guatemala, RTI, 2017) was 32 µg/mL. For the same compound, the MIC ([2]; isolate ARC6810 (IHMA 1699548), Guatemala, RTI, 2017) was over 64 µg/mL, the MIC ([2]; isolate ARC6812 (IHMA 1699530), Guatemala, RTI, 2017) was 4 µg/mL and the MIC ([2]; isolate ARC6813 (IHMA 1699543), Guatemala, UTI, 2017) was 32 µg/mL. It also gave an MIC ([2]; isolate ARC6814 (IHMA 1699512), Guatemala, RTI, 2017) of over 64 µg/mL, an MIC ([2]; isolate ARC6815 (IHMA 1699513), Guatemala, RTI, 2017) of 64 µg/mL and an MIC ([2]; isolate ARC6816 (IHMA 1699521), Guatemala, RTI, 2017) of over 64 µg/mL. For the same compound, the MIC ([2]; isolate ARC6817 (IHMA 1699523), Guatemala, RTI, 2017) was 16 µg/mL, the MIC ([2]; isolate ARC6818 (IHMA 1683261), Thailand, RTI, 2017) was 2 µg/mL and the MIC ([2]; isolate ARC6819 (IHMA 1683267), Thailand, RTI, 2017) was over 64 µg/mL. It also gave an MIC ([2]; isolate ARC6820 (IHMA 1647876), Argentina, RTI, 2017) of 4 µg/mL, an MIC ([2]; isolate ARC6821 (IHMA 1699517), Guatemala, RTI, 2017) of 2 µg/mL and an MIC ([2]; isolate ARC6822 (IHMA 1637626), Guatemala, RTI, 2017) of 8 µg/mL. The MIC ([2]; isolate ARC6823 (IHMA 1620872), Greece, SSSI, 2017) was over 64 µg/mL, the MIC ([2]; isolate ARC6824 (IHMA 1625487), Argentina, BSI, 2017) was 64 µg/mL and the MIC ([2]; isolate ARC6937 (IHMA 1562926), Spain, UTI, 2017) was 64 µg/mL. For the same compound, the MIC ([2]; isolate ARC6950 (IHMA 1820064), Israel, RTI, 2018) was over 64 µg/mL, the MIC ([2]; isolate ARC6953 (IHMA 1909827), Turkey, IAI, 2018) was 8 µg/mL and the MIC ([2]; isolate ARC6954 (IHMA 1838192), Guatemala, SSSI, 2018) was 16 µg/mL. For the same compound, the MIC ([2]; isolate ARC6955 (IHMA 1825425), United States, RTI, 2018) was 64 µg/mL, the MIC ([2]; isolate ARC7008 (IHMA 2009813), Thailand, BSI, 2019) was over 64 µg/mL and the MIC ([2]; isolate ARC7009 (IHMA 2043611), United States, UTI, 2019) was over 64 µg/mL. For the same compound, the MIC ([2]; isolate ARC7010 (IHMA 2043398), United States, RTI, 2019) was over 64 µg/mL, the MIC ([2]; isolate ARC7011 (IHMA 2104553), Germany, RTI, 2019) was over 64 µg/mL and the MIC ([2]; isolate ARC7012 (IHMA 2010001), Thailand, RTI, 2019) was over 64 µg/mL. For the same compound, the MIC ([2]; isolate ARC7013 (IHMA 1962831), Argentina, RTI, 2019) was over 64 µg/mL, the MIC ([2]; isolate ARC7014 (IHMA 2045328), Guatemala, IAI, 2019) was over 64 µg/mL and the MIC ([2]; isolate ARC7015 (IHMA 2045327), Guatemala, UTI, 2019) was 32 µg/mL. For the same compound, the MIC ([2]; isolate ARC7016 (IHMA 2148441), Brazil, BSI, 2019) was over 64 µg/mL, the MIC ([2]; isolate ARC7017 (IHMA 2148446), Brazil, BSI, 2019) was 64 µg/mL and the MIC ([2]; isolate ARC7018 (IHMA 2045454), Guatemala, IAI, 2019) was 32 µg/mL. The MIC ([2]; isolate ARC7019 (IHMA 2114463), Thailand, RTI, 2019) was over 64 µg/mL, the MIC ([2]; isolate ARC7020 (IHMA 2045326), Guatemala, RTI, 2019) was over 64 µg/mL and the MIC ([2]; isolate ARC7021 (IHMA 1966347), Guatemala, RTI, 2019) was 64 µg/mL. It also gave an MIC ([2]; isolate ARC7022 (IHMA 2045319), Guatemala, IAI, 2019) of over 64 µg/mL, an MIC ([2]; isolate ARC7024 (IHMA 2059448), Turkey, RTI, 2019) of over 64 µg/mL and an MIC ([2]; isolate ARC7025 (IHMA 2002121), Spain, RTI, 2019) of 2 µg/mL. It also gave an MIC ([2]; isolate ARC7026 (IHMA 2104494), Guatemala, BSI, 2019) of 64 µg/mL, an MIC ([2]; isolate ARC7082 (IHMA 2160640), Belgium, BSI, 2020) of over 64 µg/mL and an MIC ([2]; isolate ARC7083 (IHMA 2163687), United States, RTI, 2020) of over 64 µg/mL. The MIC ([2]; isolate ARC7084 (IHMA 2189596), Germany, RTI, 2020) was over 64 µg/mL, the MIC ([2]; isolate ARC7085 (IHMA 2205747), Guatemala, IAI, 2020) was over 64 µg/mL and the MIC ([2]; isolate ARC7086 (IHMA 2207563), Israel, RTI, 2020) was over 64 µg/mL. For the same compound, the MIC ([2]; isolate ARC7088 (IHMA 2215554), Turkey, BSI, 2020) was over 64 µg/mL, the MIC ([2]; isolate ARC7089 (IHMA 2240345), Argentina, BSI, 2020) was 2 µg/mL and the MIC ([2]; isolate ARC7090 (IHMA 2244410), Poland, RTI, 2020) was over 64 µg/mL. For the same compound, the MIC ([2]; isolate ARC7091 (IHMA 2244564), Australia, RTI, 2020) was 16 µg/mL, the MIC ([2]; isolate ARC7092 (IHMA 2258772), United States, BSI, 2020) was over 64 µg/mL and the MIC ([2]; isolate ARC7093 (IHMA 2258783), United States, RTI, 2020) was over 64 µg/mL. The MIC ([2]; isolate ARC7094 (IHMA 2296423), Turkey, RTI, 2020) was 64 µg/mL, the MIC ([2]; isolate ARC7095 (IHMA 2320843), Turkey, BSI, 2020) was over 64 µg/mL and the MIC ([2]; isolate ARC7156 (IHMA 2455450), Greece, RTI, 2021) was over 64 µg/mL. For the same compound, the MIC ([2]; isolate ARC7158 (IHMA 2523738), Italy, BSI, 2021) was over 64 µg/mL, the MIC ([2]; isolate ARC7159 (IHMA 2456229), Malaysia, RTI, 2021) was over 64 µg/mL and the MIC ([2]; isolate ARC7160 (IHMA 2458626), Thailand, RTI, 2021) was over 64 µg/mL. For the same compound, the MIC ([2]; isolate ARC7161 (IHMA 2429252), Ukraine, RTI, 2021) was over 64 µg/mL, the MIC ([2]; isolate ARC7162 (IHMA 2411847), United States, BSI, 2021) was over 64 µg/mL and the MIC ([2]; isolate ARC7163 (IHMA 2477704), United States, BSI, 2021) was over 64 µg/mL. The MIC [3] was 4 µg/mL, the MIC ([4]; isolate ARC6949 (IHMA 1898982), Romania, RTI, 2018) was over 64 µg/mL and the MIC ([4]; isolate ARC6951 (IHMA 1776233), Philippines, RTI, 2018) was 32 µg/mL. For the same compound, the MIC ([4]; isolate ARC6952 (IHMA 1899008), Romania, RTI, 2018) was over 64 µg/mL and the MIC ([4]; isolate ARC7087 (IHMA 2212062), Colombia, BSI, 2020) was 8 µg/mL.
